Among the data in US20210214607A1, “LONG WAVELENGTH EMITTING CHEMILUMINESCENT PROBES” (NEMIS Technologies AG, priority 2018, published 2021) are emission maximum and intensity of emission values, retold here.

Data set [1] in a line: Chemiluminescence upon reaction with H2O2 in PBS. The data set is classed as physicochemical. The note with it: compound 100 μM, H2O2 1 mM, PBS (pH 7.4) (10% DMSO). The procedure:
(§1) All reactions were carried out at room temperature unless stated otherwise. Chemicals and solvents were either A.R. grade or purified by standard techniques. Thin layer chromatography (TLC): silica gel plates Merck 60 F254: compounds were visualized by irradiation with UV light. Column chromatography (FC): silica gel Merck 60 (particle size 0.040-0.063 mm), eluent given in parentheses. Reverse-phase high pressure liquid chromatography (RP-HPLC): C18 5u, 250×4.6 mm, eluent given in parentheses. Preparative RP-HPLC: C18 5u, 250×21 mm, eluent given in parentheses. Fluorescence and chemiluminescence were recorded on Molecular Devices Spectramax i3x.
The respective chemiluminescent kinetic profile is shown in FIG. 1 and the total light emission with [1 mM] or without the presence of H2O2 is shown in FIG. 2.
The chemiluminescent kinetic profile is shown in FIG. 5 and the total light emission with and without the presence of H2O2 is shown in FIG. 6.

Data set [2] is described as follows: Chemiluminescent emission spectrum in PBS. As to conditions: compound 100 μM, PBS (pH 7.4) (10% DMSO). The data set is classed as physicochemical. The procedure: as §1

Structures are written as SMILES.

For the compound `COC1(c2ccc(/C=C/c3cc[n+](CCCCCC(=O)O)cc3)c(OCc3ccc(B4OC(C)(C)C(C)(C)O4)cc3)c2Cl)OOC12C1CC3CC(C1)CC2C3` (stereo not drawn) [Ia1], the emission maximum in data set [1] (37° C.) is recorded as 660 nm.

As to `COC1(c2ccc(/C=C/c3cc[n+]([O-])cc3)c(O)c2Cl)OOC12C1CC3CC(C1)CC2C3` (stereo not drawn) [Ia2], the intensity of emission entry in data set [2] was “visible by the naked eye”.

`COC1(c2ccc(/C=C/c3cccc[n+]3CCCCCC(=O)O)c(OCc3ccc(B4OC(C)(C)C(C)(C)O4)cc3)c2Cl)OOC12C1CC3CC(C1)CC2C3` (stereo not drawn) [Ia3] showed an emission maximum in data set [1] (26° C.) of 650 nm.
